Read-outs that look alike come from different tables or passages of the source.
What was measured:
[1] = tested on: U87 glioblastoma cells; test: PrestoBlue cell viability assay (Example 2); type: cell-based; conditions: Homo sapiens, 96-hours treatment, read-out: reduction of cell viability
Procedure: PrestoBlue™ cell viability assay was used to determine the effect of TMZ on the viability and proliferation of U87 glioblastoma cells. In this assay, metabolically active cells reduce a non-fluorescent compound (resazurin) in the PrestoBlue™ solution into a fluorescent molecule (resorufin).
In this study, U87 glioblastoma cells were seeded in a 96 well plate at 5,000 cells per well density, and a 24 well plate at 25,000 cells per well density to evaluate the cytotoxicity of free TMZ and one embodiment of the disclosed composition, respectively. The wells were then incubated for 24 hours at 37° C. with 95% relative humidity and 5% CO2. To determine the effect of the free TMZ, U87 glioblastoma cells were treated with different concentrations of the drug from 100 μM to 1000 μM in the cell medium. To study the effect of the disclosed hydrogel composition, the cells were treated with both microsphere-loaded (TMZ concentration of 100 μM) and blank meshes. Cells were incubated for 24, 48, 72, and 96 hours without changing the cell culture medium. […] Subsequently, the cell culture medium containing presto blue was transferred into a new well plate and the fluorescent intensity of each well was measured at excitation wavelength of 535 nm and emission wavelength of 615 nm by using a plate reader. Cell viability was then calculated by using equation 4 (Eq. 4): […]

[2] = tested on: U-87 MG cells; test: Bright field microscopy of treated cells; type: cell-based, human; conditions: free ATRA = 40 μM
[3] = tested on: U-87 MG cells; test: Cell count assay (hemocytometer, Trypan Blue); type: cell-based, human; conditions: 40 μM ATRA in cell medium
Procedure: U-87 MG cells were provided by ATCC® and cultured in Dulbecco's Modified Eagle Medium (DMEM), high glucose (Gibco™ by Life Technologies™, Carlsbad, USA, Catalog No.: 11965084) with 10% fetal bovine serum (Gibco™ by Life Technologies™, Carlsbad, USA, Catalog No.: 12483020), 1% penicillin-streptomycin (Invitrogen/Life Technologies™, Carlsbad, USA, Catalog No.: 15140122), and 4 μg/ml puromycin at 37° C. in an atmosphere of 5% CO2. Cells were counted by hemocytometer (Bright-Line™) with two-time dilution in Trypan Blue solution (Sigma-Aldrich, St Louis, USA, Catalog No.:93595).

[4] = tested on: U-87 MG cells; test: Apoptosis assay, propidium iodide flow cytometry, sub-G1 population; type: cell-based, human; conditions: free ATRA 40 μM; 48 hours
Procedure: To determine the level of apoptosis induced by ATRA apoptosis levels were detected using propidium iodide (PI) lysis buffer and flow cytometry. […] 1% sodium citrate (Bio Basic, Markham, Canada, Catalog No.: CB0035) and 0.1% Triton X-100 (Sigma-Aldrich, Sigma-Aldrich, St. Louis, USA Catalog No.: X100) were added to distilled water to prepare an initial solution for PI lysis buffer. The pH of the solution was adjusted to 7.4 and stored.
Prior to the apoptosis assay, RNase (Sigma-Aldrich, St. Louis, USA Catalog No.: R6513) and propidium iodide (Sigma-Aldrich, St. Louis, USA Catalog No.: P4864) was added to the initial solution to reach concentrations of 0.5 mg/ml and 40 μg/ml for RNase and propidium iodide, respectively. The cell media was collected and the cells were detached with EDTA (Caledon Laboratory Chemicals, Georgetown, Canada, Catalog No.: 3460-1-65) solution. The cell suspension was centrifuged at 4° C. in 1500 g for 5 minutes. Following, the cell pellets were washed twice with 500 μl of DPBS (Gibco™ by Life Technologies™, Carlsbad, USA, Catalog No.: 14190250) 4° C. The pellets were then lysed and stained with 250 μl of PI lysis buffer, and kept at room temperature in the dark for 15-30 minutes. […] Finally, the red channel was read on the flow cytometer to determine the sub-G1 population.

[5] = oral administration is the main route; cited from earlier work
[6] = tested on: U-87 MG cells; test: PrestoBlue cell viability assay (Example 1); type: cell-based, human
Procedure: Cell viability was assessed by PrestoBlue™ (Invitrogen/Life Technologies™, Carlsbad, USA, Catalog No.: A13262) assay. In this experiment, cells were first seeded in 6-well plates in a density of 6×10^4 cells/well. Viability tests were conducted at 48, 72, and 96 hours by replacing the cell media with 10% PrestoBlu™ reagent and incubating at 37° C. for 1 hour. Following, 100 μl of the incubated 10% PrestoBlue™ reagent from each well of the assay plates was transferred to a new well in a 96-well plate and read by a microplate reader (Infinite M200 Pro). Finally, viability was calculated by the following equation: […]

SMILES | cytotoxicity at 100 µM ([1]; free TMZ 100 μM) [%] | cytotoxicity at 1000 µM ([1]; free TMZ 1000 μM) [%] | cell morphology [2] | cell population relative to control condition ([3]; 48 hours) | cell population relative to control condition ([3]; 96 hours) | apoptosis (sub-G1 population) [4] | half-life [5] | cell viability compared to control ([6]; 20 μM in cell medium, 96 hours) [%] | cell viability compared to control ([6]; 40 μM in cell medium, 96 hours) [%] | viability at 20 µM ([6]; Homo sapiens, U-87 MG, 48 h, 20 μM in cell medium, 48 hours, read-out: cell viability compared to control) [%] | viability at 20 µM ([6]; Homo sapiens, U-87 MG, 96 h, 20 μM in cell medium, 96 hours, read-out: cell viability compared to control) [%] | viability at 40 µM ([6]; Homo sapiens, U-87 MG, 96 h, 40 μM in cell medium, 96 hours, read-out: cell viability compared to control) [%]
Cn1nnc2c(C(N)=O)ncn2c1=O [TMZ, Temozolomide] | 78 | 95 |  |  |  |  |  |  |  |  |  | 
CC1=C(/C=C/C(C)=C/C=C/C(C)=C/C(=O)O)C(C)(C)CCC1 [ATRA, all-trans retinoic acid] |  |  | cell shrinkage | 86.0%±7.2% | 64.4%±8.6% | about 2% | about 1.5 hours | 77 | 72 | 88.4 | 77.3 | 72.4

Reference: patent publication US20200129435A1, “COMPOSITION FOR DELIVERING A THERAPEUTIC AGENT AND METHODS FOR MAKING AND USING” (UVic Industry Partnerships Inc., priority 2018, published 2020)
